Test results reported in patent US10351522B2, “Sulfonamide derivative and pharmaceutically acceptable acid addition salt thereof” (UNIVERSITY OF TSUKUBA, priority 2015, dated 2019).
Read-outs that look alike come from different tables or passages of the source.

Assays:
human OX1R = molecular target: T1, human OX1R (Homo sapiens, UniProt O43613); test: Agonist activity against OX1R: intracellular calcium (Fura-2AM, FDSS7000) in CHOOX1R cells; format: cell-based; details: for Emax at 0.1 µM / Emax at 1 µM / Emax at 10 µM: read-out: Response (%) OX1R
T1 construct: expressed in transfected cells; host or cells: CHO (Chinese hamster ovary) cells, line CHOOX1R, co-expressing NFAT-luciferase
T1 sequence (O43613 1-425): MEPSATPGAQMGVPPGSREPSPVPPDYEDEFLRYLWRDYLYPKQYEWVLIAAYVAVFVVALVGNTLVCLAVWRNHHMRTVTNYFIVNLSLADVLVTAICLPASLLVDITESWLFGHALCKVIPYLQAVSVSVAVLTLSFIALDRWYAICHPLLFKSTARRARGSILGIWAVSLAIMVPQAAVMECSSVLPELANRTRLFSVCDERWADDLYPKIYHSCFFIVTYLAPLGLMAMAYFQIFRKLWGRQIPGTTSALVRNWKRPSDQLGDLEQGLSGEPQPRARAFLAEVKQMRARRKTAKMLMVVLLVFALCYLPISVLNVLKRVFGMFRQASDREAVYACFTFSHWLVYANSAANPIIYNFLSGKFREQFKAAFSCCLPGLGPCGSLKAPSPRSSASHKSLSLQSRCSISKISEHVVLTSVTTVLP
Procedure: (§1) Evaluation of Agonist Activity Against OX1R and OX2R
(§2) NAFT-luciferase gene and human OX1R gene were constitutively expressed in CHO cell, which is a cell line derived from Chinese hamster ovary to establish a cell line (CHOOX1R) and NAFT-luciferase gene and human OX2R gene were constitutively expressed in CHO cell to establish a cell line (CHOOX2R). The respective cells were seeded in a 96-well Multiplate at 10,000 cells/well and cultured in a 5% FBS (Thermo Scientific)-added DMEM medium (Sigma-Aldrich) for 48 hr. The medium was removed, an assay buffer (20 mM HEPES (Sigma-Aldrich), Hanks' balanced salt solution (Gibco), 0.1% BSA (Sigma-Aldrich), 2.5 mM probenecid acid (Wako Pure Chemical Industries, Ltd.)) (100 μL) containing 5 μM Fura-2AM (Cayman Chemical) was added, and the cells were incubated for 60 min. The buffer containing Fura-2AM was removed, and an assay buffer (75 μL) was added. An assay buffer (25 μL) containing a test compound was added thereto to start the reaction. Changes in the intracellular calcium ion concentration due to the reaction were measured by measuring the fluorescence intensity ratio by dual wavelength excitation at 340 and 380 nm, by using FDSS7000 (Hamamatsu Photonics K.K.). The test compound was dissolved in DMSO to 10 mM, and diluted with the assay buffer to a final concentration of 10^−7M to 10^−5M (final concentration of DMSO 1%).
(§3) (As used herein, Response in Table 21 to Table 27 is a value obtained by dividing the agonist activity value, when the test compound is evaluated with orexin-A as a full-agonist (maximum value of agonist activity: 100%), at 10 μM, 1.0 μM, 0.1 μM by the agonist activity value of orexin-A.)

human OX2R = molecular target: T2, human OX2R (Homo sapiens, UniProt O43614); test: Agonist activity against OX2R: intracellular calcium (Fura-2AM, FDSS7000) in CHOOX2R cells; format: cell-based; details: relative to orexin-A as full agonist (100%)
T2 construct: expressed in transfected cells; host or cells: CHO (Chinese hamster ovary) cells, line CHOOX2R, co-expressing NFAT-luciferase
T2 sequence (O43614 1-444): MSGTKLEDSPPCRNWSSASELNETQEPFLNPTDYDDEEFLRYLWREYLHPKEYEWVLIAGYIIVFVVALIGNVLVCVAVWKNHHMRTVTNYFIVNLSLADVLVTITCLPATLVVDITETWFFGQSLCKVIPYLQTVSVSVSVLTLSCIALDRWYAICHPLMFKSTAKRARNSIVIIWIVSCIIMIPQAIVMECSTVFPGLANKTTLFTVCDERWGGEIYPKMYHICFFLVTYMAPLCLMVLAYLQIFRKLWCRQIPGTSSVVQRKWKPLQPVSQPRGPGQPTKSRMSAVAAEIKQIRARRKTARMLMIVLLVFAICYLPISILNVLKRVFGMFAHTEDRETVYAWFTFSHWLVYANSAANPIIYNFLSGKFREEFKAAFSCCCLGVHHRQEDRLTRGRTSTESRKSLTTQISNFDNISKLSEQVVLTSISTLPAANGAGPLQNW
Procedure: as §1, §2, §3

[1] = test compound 0.1 μM, relative to orexin-A as full agonist (100%)
[2] = test compound 1.0 μM, relative to orexin-A as full agonist (100%)
[3] = test compound 10 μM, relative to orexin-A as full agonist (100%)
[4] = 0.1 μM test compound, relative to orexin-A as full agonist (100%)
[5] = 1.0 μM test compound, relative to orexin-A as full agonist (100%)
[6] = 10 μM test compound, relative to orexin-A as full agonist (100%)

| SMILES | Response (%) OX2R (human OX2R; test compound 0.1 μM) | Response (%) OX2R (human OX2R; test compound 1.0 μM) | Response (%) OX2R (human OX2R; test compound 10 μM) | Response (%) OX1R (human OX1R; [4]) | Response (%) OX1R (human OX1R; [5]) | Response (%) OX1R (human OX1R; [6]) | Response (%) OX2R (human OX2R; 0.1 μM test compound) | Response (%) OX2R (human OX2R; 1.0 μM test compound) | Response (%) OX2R (human OX2R; 10 μM test compound) | Response (%) OX1R (human OX1R; [1]) | Response (%) OX1R (human OX1R; [2]) | Response (%) OX1R (human OX1R; [3]) | other results |
| --- | --- | --- | --- | --- | --- | --- | --- | --- | --- | --- | --- | --- | --- |
| COc1ccc(-c2cccc(C(=O)N(C)C)c2)cc1S(=O)(=O)Nc1cccc(N(C)C)c1 [Example 96, 3′-(N-(3-(dimethylamino)phenyl)sulfamoyl)-4′-methoxy-N,N-dimethyl-[1,1′-biphenyl]-3-carboxamide] | <5% | <5% | 67% | – | – | – | – | – | – | – | – | – | Emax at 0.1 µM (human OX1R; [1]): < 5%; Emax at 1 µM (human OX1R; [2]): < 5%; Emax at 10 µM (human OX1R; [3]): < 5% |
| COc1ccc(-c2cccc(C(=O)N(C)C)c2)cc1S(=O)(=O)Nc1cccc(NC(=O)Nc2ccc(Br)cc2)c1 [Example 42] | – | – | – | <5% | <5% | <5% | 93% | 109% | 95% | – | – | – | – |
| COc1ccc(-c2cccc(C(=O)N(C)C)c2)cc1S(=O)(=O)Nc1cccc(NCc2ccccc2Br)c1 [Example 28] | – | – | – | <5% | <5% | <5% | 6% | 54% | 81% | – | – | – | – |
| COc1ccc(-c2cccc(C(=O)N(C)C)c2)cc1S(=O)(=O)Nc1cccc(NCc2ccccc2O)c1 [Example 26] | – | – | – | <5% | <5% | 9% | <5% | 51% | 101% | – | – | – | – |
| COc1ccc(-c2cccc(C(=O)N(C)C)c2)cc1S(=O)(=O)Nc1cccc(NC(=O)Nc2cccc(N(C)C)c2)c1OC [Example 123, 3′-(N-(3-(3-(3-(dimethylamino)phenyl)ureido)-2-methoxyphenyl)sulfamoyl)-4′-methoxy-N,N-dimethyl-[1,1′-biphenyl]-3-carboxamide] | 63% | 111% | 111% | – | – | – | – | – | – | – | – | – | Emax at 0.1 µM (human OX1R): < 5%; Emax at 1 µM (human OX1R): 6%; Emax at 10 µM (human OX1R): < 5% |
| COc1ccc(Nc2cccc(NS(=O)(=O)c3cc(-c4cccc(C(=O)N(C)C)c4)ccc3OC)c2)cc1 [Example 29] | – | – | – | <5% | <5% | <5% | 11% | 84% | 81% | – | – | – | – |
| COc1ccc(-c2cccc(C(=O)N(C)C)c2)cc1S(=O)(=O)Nc1cccc(NC(=O)Nc2ccccc2Br)c1 [Example 43] | – | – | – | <5% | <5% | 10% | 102% | 105% | 104% | – | – | – | – |
| COc1cccc(Nc2cccc(NS(=O)(=O)c3cc(-c4cccc(C(=O)N(C)C)c4)ccc3OC)c2)c1 [Example 32] | – | – | – | <5% | <5% | 14% | 13% | 79% | 88% | – | – | – | – |
| COc1ccc(-c2cccc(C(=O)N(C)C)c2)cc1S(=O)(=O)Nc1cccc(NC(=O)Nc2cccc(NC(=N)N)c2)c1 [Example 65] | – | – | – | <5% | <5% | <5% | <5% | <5% | 6% | – | – | – | – |
| COc1ccccc1Nc1c(Nc2cccc(NS(=O)(=O)c3cc(-c4cccc(C(=O)N(C)C)c4)ccc3OC)c2)c(=O)c1=O [Example 83] | <5% | <5% | 11% | – | – | – | – | – | – | <5% | <5% | 9% | – |
| COc1ccccc1NC(=O)Nc1cccc(NS(=O)(=O)c2cc(-c3cccc(C(=O)N(C)C)c3)ccc2OC)c1 [Example 52] | – | – | – | <5% | <6% | <7% | 43% | 81% | 78% | – | – | – | – |
| COc1ccc(-c2cccc(C(=O)N(C)C)c2)cc1S(=O)(=O)Nc1cccc(NC(=O)Nc2ccc(NC(=N)N)cc2)c1 [Example 60] | – | – | – | <5% | <5% | <5% | <5% | <5% | 31% | – | – | – | – |
| COc1ccc(NC(=O)Nc2cccc(NS(=O)(=O)c3cc(-c4cccc(C(=O)N(C)C)c4)ccc3OC)c2)cc1 [Example 53] | – | – | – | <8% | 6% | 26% | 98% | 95% | 100% | – | – | – | – |

Second part, led by results:

| Response (%) OX2R (human OX2R; test compound 0.1 μM) | Response (%) OX2R (human OX2R; test compound 1.0 μM) | Response (%) OX2R (human OX2R; test compound 10 μM) | Response (%) OX1R (human OX1R; [4]) | Response (%) OX1R (human OX1R; [5]) | Response (%) OX1R (human OX1R; [6]) | Response (%) OX2R (human OX2R; 0.1 μM test compound) | Response (%) OX2R (human OX2R; 1.0 μM test compound) | Response (%) OX2R (human OX2R; 10 μM test compound) | Response (%) OX1R (human OX1R; [1]) | Response (%) OX1R (human OX1R; [2]) | Response (%) OX1R (human OX1R; [3]) | SMILES | other results |
| --- | --- | --- | --- | --- | --- | --- | --- | --- | --- | --- | --- | --- | --- |
| 85% | 93% | 92% | – | – | – | – | – | – | <5% | 41% | 81% | COc1ccc(-c2cccc(C(=O)N(C)C)c2)cc1S(=O)(=O)Nc1cccc(N2CCN(c3ccccc3N(C)C)C2=O)c1 [Example 129] | – |
| 7% | 6% | 39% | – | – | – | – | – | – | 8% | 9% | 7% | COc1ccc(C(=O)NCc2cccnc2)cc1S(=O)(=O)Nc1cccc(NC(=O)Nc2ccc(N(C)C)cc2)c1 [Example 109] | – |
| 107% | 81% | 72% | – | – | – | – | – | – | 25% | 86% | 84% | COc1ccc(-c2cccc(C(=O)N(C)C)c2)cc1S(=O)(=O)Nc1cccc(N2CCCN(c3ccccc3N(C)C)C2=O)c1 [Example 133] | – |
| <5% | <5% | 28% | – | – | – | – | – | – | <5% | <5% | <5% | COc1ccc(C(=O)N(C)C)cc1S(=O)(=O)Nc1cccc(NC(=O)Nc2ccccc2N(C)C)c1 [Example 114] | – |
| 9% | 32% | 92% | – | – | – | – | – | – | 8% | 7% | 8% | COc1ccc(C(=O)NCCNC(=O)OC(C)(C)C)cc1S(=O)(=O)Nc1cccc(NC(=O)Nc2cccc(N(C)C)c2)c1 [Example 105] | – |
| 64% | 99% | 106% | – | – | – | – | – | – | <5% | <5% | 6% | COc1ccc(-c2cccc(C(=O)N(C)C)c2)cc1S(=O)(=O)Nc1cccc(N2CCN(c3cccc(N(C)C)c3)C2=O)c1 [Example 130] | – |
| 61% | 97% | 100% | – | – | – | – | – | – | <5% | <5% | <5% | CCN(Cc1cccnc1)C(=O)c1ccc(OC)c(S(=O)(=O)Nc2cccc(NC(=O)Nc3cccc(N(C)C)c3)c2)c1 [Example 102] | – |
